Measurements taken from paper PMC11225352, “A multicenter, randomized, double-blind, placebo-controlled ascending dose study to evaluate the safety, tolerability, pharmacokinetics (PK) and pharmacodynamic (PD) effects of Posiphen in subjects with early Alzheimer’s Disease” (Alzheimer's Research & Therapy, 2024).

Legend:
APP = test: Post hoc comprehensive compartmental modeling of APP production rate from SILK data; type: in vivo, human
Method: For SILK, the fraction of labeled Aβ for Aβ38, 40, and 42 during 36 h after administration of study drug for each subject was calculated, as described. The FSR measures were calculated by fitting a line to the upslope of the CSF Aβ labeling data. It was assumed that the upslope occurred between hours 6–16 h after the start of confinement. FSR for treated and untreated subjects were compared by analysis of variance (ANOVA). The percentage of newly synthesized and degraded Aβ was estimated over 36 h by multiplying the […] concentration of Aβ measured at the start of confinement (i.e. at catheter placement; time = 0) by the percentage of Aβ that contains ^13C6-leucine at each time point. This can be used to estimate the AUC of the drug for decreasing the amount of newly produced Aβ [24]. As a post hoc analysis, the FSR measurement was also performed with different assumptions: the timeframe for measuring the upslope was automatically detected based on the slope of the SILK curve (see supplementary materials for method and code). As an additional post hoc analysis, a newer model for SILK that take into count the multiple compartments and CSF and other spaces involved in APP metabolism was also used to estimate APP production rates, as described below.
APP and Aβ production and clearance rates were determined using a recently described comprehensive model. The model accounts for the bi-hourly withdrawal of 6 mL of CSF, which is known to alter the lumbar CSF concentration of Aβ [25]. The model estimates rates of APP production, enzymatic production of Aβ, transport of Aβ from interstitial fluid (ISF) to CSF, enzymatic degradation of Aβ, blood-brain barrier transport of Aβ, as well as CSF mixing throughout the subarachnoid space (SAS) and clearance of CSF from cranial and spinal subarachnoid space (SAS). For the DISCOVER trial, MRI volumetric scans were not available, so CSF volumes (cranial, cisternal and ventricular) were estimated based on the subject’s age using data from the previous study (see Supplementary Materials). […]

sAPPα = test: CSF sAPPα level, screening to day 21 (MSD immunoassay); type: in vivo, human; settings: ANOVA with age and sex as covariates; p = 0.38
Method: (§1) For biochemical analysis to derive data for SILK, ^13C6-leucine was analyzed in plasma and CSF by mass spectrometry, and Aβ peptides in CSF were analyzed by immunoprecipitation-mass spectrometry (IP-MS) as previously described, by C2N Diagnostics (St Louis, MO). CSF levels of sAPPα, sAPPβ, Aβ38, 40 and 42 were analyzed by the ADCS Biomarker Core using Mesoscale Discovery (MSD) electrochemiluminescent assays (Mesoscale Discovery, Rockville, MD). Levels of Posiphen and its N1 and N8 metabolites in plasma and CSF were measured by Charles River Laboratories (Montreal, CA) by high-performance liquid chromatographic mass spectrometry, with use of deuterated Posiphen (procured by Charles River Laboratories) as an internal standard.
Changes in CSF biomarkers from the screening to confinement (sample at time of placement of catheter) were compared in the treatment and placebo groups by ANOVA, with models that included age, sex and baseline MMSE, and further analysis stratified by treatment dose. A similar approach was taken to analyze changes in MMSE, ADAS-cog and NPI. Data were analyzed using R (version 4.2.2).

Aβ42 = test: SILK analysis of CSF Aβ42 (fractional synthesis rate); type: in vivo, human; settings: after 21 days
Method: as §1
For SILK, the fraction of labeled Aβ for Aβ38, 40, and 42 during 36 h after administration of study drug for each subject was calculated, as described. The FSR measures were calculated by fitting a line to the upslope of the CSF Aβ labeling data. It was assumed that the upslope occurred between hours 6–16 h after the start of confinement. […] The percentage of newly synthesized and degraded Aβ was estimated over 36 h by multiplying the […] concentration of Aβ measured at the start of confinement (i.e. at catheter placement; time = 0) by the percentage of Aβ that contains ^13C6-leucine at each time point. […]

APP mRNA = test system: APP mRNA; parameters: method as in PMID 20558735, PMID 22693681; settings: resulting in decreased production of APP and Aβ; cited from earlier work

SMILES: CN1CC[C@]2(C)c3cc(OC(=O)Nc4ccccc4)ccc3N(C)[C@H]12 [Posiphen]
- APP production, placebo vs 120 mg per day group (APP; model with pre-drug lumbar CSF concentration as covariate): showed significance
- APP production rate (APP; single 180 mg per day subject): low
- APP production rates (APP; subjects receiving 120 or 180 mg per day, differences not significant by non-parametric analysis): trended lower
- CSF sAPPα, Treatment difference (Posiphen – placebo) (sAPPα): 9.99 (10.8) p = 0.38 pg/mL
- effect on FSR estimates for Aβ42 vs. placebo (Aβ42): no significant effect
- translation of APP mRNA (APP mRNA): decreased
